In assay [1] the test system is Phytophthora infestans. The format is in vivo, Phytophthora infestans (on tomato seedlings). Particulars: 40 ppm; tomato late blight, curative (17 h after inoculation); rating 100 = 100% disease control, 0 = no disease control relative to the controls.
For assay [2], the system named is Phytophthora infestans. The format is in vivo, Phytophthora infestans (on tomato seedlings). The settings on record: 40 ppm; tomato late blight, preventive; rating 100 = 100% disease control, 0 = no disease control relative to the controls.
The subject of the next assay is Plasmopara viticola. Kind of assay: Test A: grape downy mildew, curative spray on inoculated grape seedlings, visual disease rating. It counts as in vivo, Plasmopara viticola (on grape seedlings). Particulars: 40 ppm, rating 100 = 100% disease control, 0 = no disease control relative to the controls.

As to `Cc1cc(C(F)(F)F)nn1CC(=O)N1CCC(c2nc3c(s2)CCC(Cc2c(F)cccc2F)C3=O)CC1` (single isomer, unassigned) [Compound 5, 5-[(2,6-difluorophenyl)methyl]-6,7-dihydro-2-[1-[2-[5-methyl-3-(trifluoromethyl)-1H-pyrazol-1-yl]acetyl]-4-piperidinyl]-4(5H)-benzonthiazolone], the “Test B2 rating (disease control)” value in the assay with Phytophthora infestans [1] came out at 99. For the same molecule, the “Test B1 rating (disease control)” value in the assay on Phytophthora infestans [2] is recorded as 100. Besides, the “Test A rating (disease control)” value in the assay on Plasmopara viticola amounted to 99.

For the molecule `Cc1cc(C(F)(F)F)nn1CC(=O)N1CCC(c2nc3c(s2)CCC(Cc2c(F)cccc2F)C3=O)CC1` (single isomer, unassigned) [Compound 6, 5-[(2,6-difluorophenyl)methyl]-6,7-dihydro-2-[1-[2-[5-methyl-3-(trifluoromethylene)-1H-pyrazol-1-yl]acetyl]-4-piperidinyl]-4(5H)-benzothiazolone], the “Test B2 rating (disease control)” value in the assay with Phytophthora infestans [1] is 78. In addition, the “Test B1 rating (disease control)” value in the assay on Phytophthora infestans [2] is on record as 100. Also, the “Test A rating (disease control)” value with Plasmopara viticola was found to be 78.

Regarding `Cc1cc(C(F)(F)F)nn1CC(=O)N1CCC(c2nc3c(s2)CCN(Cc2ccccc2)C3=O)CC1` [Compound 8, 6,7-dihydro-2-[1-[2-[5-methyl-3-(trifluoromethyl)-1H-pyrazol-1-yl]acetyl]-4-piperidinyl]-5-(phenylmethyl)thiazolo[4,5-c]pyridin-4(5H)-one], the “Test B2 rating (disease control)” value in the assay with Phytophthora infestans [1] is 99. Moreover, the “Test B1 rating (disease control)” value in the assay with Phytophthora infestans [2] was found to be 100. Further, the “Test A rating (disease control)” value in the assay with Plasmopara viticola was 100.

(Values after US20150336985A1, “FUNGICIDAL HETEROCYCLIC COMPOUNDS” (E. I. DU PONT DE NEMOURS AND COMPANY, priority 2012, published 2015).)
